The values below come from article PMC8344021, “Discovery of Small Molecule Bak Activator for Lung Cancer Therapy” (Theranostics, 2021).

This experiment concerns A549 cells. Kind of experiment: Apoptotic cell death assay (Annexin V/PI). In kind it is cell-based, human. The text has this:
Supplemental Materials and Methods
Small molecule NSC14073 (BKA-073) was obtained from the Drug Synthesis and Chemistry Branch, Developmental Therapeutic Program, Division of Cancer Treatment and Diagnosis, National Cancer Institute (NCI, Bethesda, MD) (http://dtp.nci.nih.gov/RequestCompounds).
Venetoclax (ABT-199, 205807) was purchased from MedKoo Biosciences (Morrisville, NC).
Antibodies including PARP (sc-8007), Bax (sc-7480), Mcl-1 (sc-12756), cytochrome c (sc-13156) and actin (sc-47778) were purchased from Santa Cruz (Santa Cruz, CA). Bcl2 antibody (05-826) was obtained from Calbiochem (Darmstadt, Germany). Bcl-XL (ab32370), Bak (ab32371) and Bax (ab104156) antibodies were purchased from Abcam (Cambridge, MA).
Active caspase 3 (9579S) and Mcl-1 (94296S) antibodies were purchased from Cell Signaling Technology (Danvers, MA). Fluorescent Bak BH3 domain peptide (FAM-GQVGRQLAIIGDDINR) and purified Bcl-XL protein were purchased from NeoBioSciTM (Cambridge, MA). Bim BH3 peptide (AS-62278) was obtained from AnaSpec, Inc. (Fremont, CA). Purified recombinant human Bak protein (BAK1-26166TH) was purchased from Creative Biomart (Shirley, NY). Purified recombinant human Bax protein (H00000581-P01) was obtained from Novus Biologicals (Littleton, CO) and purified human Bcl-XL protein (SRP0187) was purchased from Sigma-Aldrich (St. Louis, MO). Purified human Bcl2 protein was obtained from ProteinX Lab (San Diego, CA). Purified recombinant human Mcl-1 protein (GWB-P0342D) was purchased from GenWay Biotech, Inc. (San Diego, CA). Purified recombinant human Bcl-w (824-BW-050) protein was obtained from R&D systems (Minneapolis, MN). Bis (maleimido) hexane (BMH) (22330) was purchased from Thermo Scien tific (Rockford, IL). JC -1 (ENZ-52304) was obtained from Enzo Life Sciences, Inc. (Farmingdale, NY). All other reagents used were obtained from commercial sources unless otherwise stated. […]
Apoptotic cell death assay
Apoptotic cells were detected using Annexin-V Apoptosis Detection Kit (556547, BD Biosciences, San Jose, CA) according to the manufacturer’s instructions. After treatment with BKA-073 or other agent(s) for 72h, cells were washed twice with cold 1x PBS and then resuspended in 1 x Binding Buffer at a concentration of 1 x 10^6 cells/ml. 100 μl of the solution […]
(1 x 10^5 cells) was transferred to a 5 ml culture tube, followed by the addition of 5 μl of FITC Annexin V and 5 μl propidium iodide (PI). The cells were gently vortexed and incubated for 15 min at RT (25°C) in the dark. 400 μl of 1x binding buffer was added to each tube. […]
mM DTT] in black 96-well microplates. The plate was mixed o n a shaker for 1 minute and incubated at room temperature for an additional 15 minutes. The FP values (in millipolarization units) were measured using a fluorescence microplate reader at 485/530 nm (Gemini XPS, Molecular Devices). Data analysis and inhibit ory constant (Ki) value was determined by GraphPad prism software as described.
Cloning, protein expression and purification of mouse B ak protein
The clone pMIH-mRuby2-mouse Bak (#111627) for generation of mouse Bak protein was obtained from Addgene (Watertown, MA). The mouse Bak cDNA was cloned into pET29b expression vector between BglII and XhoI sites as His tag fusions. The BL21 DE3 Escherichia coli containing plasmid was grown at 37°C in LB (Luria-Bertani) media. The protein expression was induced with IPTG (0.2 mM) at 18°C for 16 h when the density reached an OD600 of 0.6.
Bacteria were then harvested and resuspended in 30 ml buffer A (20 mM Tris, pH 8.0, 120 mM NaCl, 10% glycerol, and protease inhibitor cocktail) and lysed by sonication. The lysate was centrifuged at 14,000 rpm for 30 min. The resulting supernatant was incubated with HisPur Cobalt Resin (Thermo Scientific) at 4 °C for 2h. After washing wi th buffer A, His-tagged mouse Bak proteins was eluted with buffer B (20 mM Tris, pH 8.0, 120 mM NaCl, 300 mM imidazole, 10% glycerol with protease inhibitor). The elution peak of interest was checked by SDS -PAGE […]

Turning to `COc1ccc2nc3ccccc3c(NCCNCC(C)O)c2c1` (centres unmarked) [BKA-073], for the setting “0, 0.25, 0.5, 0.75, 1.0 µM, 72h”, the “induction of apoptotic cell death” value is given as “in a dose-dependent manner”. Besides, the “sensitivity (DBP and apoptosis)” value is recorded as “completely or partially restored sensitivity” (A549 Bak-/- cells expressing A79E Bak, 1 µM); “failed to restore sensitivity” (A549 Bak-/- cells expressing D83E Bak, 1 µM); “completely or partially restored sensitivity” (A549 Bak-/- cells expressing I80E Bak, 1 µM); “failed to restore sensitivity” (A549 Bak-/- cells expressing N86E Bak, 1 µM). Besides, the “sensitivity (DBP and apoptotic cell death)” value reads like this: (A549 Bak-/- cells expressing exogenous WT Bak, 1 µM) “restored sensitivity”; (A549 Bak-/- cells expressing ΔBH3 mutant Bak, 1 µM) “failed to restore sensitivity”; (A549 Bak-/- cells transfected with vector-only, 1 µM) “resistant”; (Bak-/- A549 cells, 1μM, 16h or 72h) “significant resistance”; (Bax-/- A549 cells, 1μM, 16h or 72h) “sensitive”; (DKO A549 cells, 1μM, 16h or 72h) “significant resistance”. Also, where the note is “parental A549 cells, 1μM, 16h or 72h”, the “sensitivity (DBP and apoptotic cell death)” value is “sensitive”. The apoptotic cell death is, setting by setting: (Bak-/- A549 cells) ~ 20%; (DKO A549 cells) ~ 20%.
